Measurements as given in patent US20230192712A1, “MODULATORS OF THE INTEGRATED STRESS PATHWAY” (Calico Life Sciences LLC, priority 2017, published 2023).
pEC50: −log10 of the molar value.

Tested on: HEK293T cells carrying the ATF4 luciferase reporter
Test: ATF4-Luc assay (in vitro model of VWMD)
Assay type: cell-based
Conditions: Homo sapiens, HEK-293T; HEK293T ATF4 5'-UTR firefly luciferase reporter cells, 1 μg/mL tunicamycin, 7 hours, One Glo luminescence
Description: In order to test exemplary compounds of the invention in a cellular context, a stable VWMD cell line was first constructed. The ATF4 reporter was prepared by fusing the human full-length ATF4 5′-UTR (NCBI Accession No. BC022088.2) in front of the firefly luciferase (FLuc) coding sequence lacking the initiator methionine as described in Sidrauski et al (eLife 2013). The construct was used to produce recombinant retroviruses using standard methods and the resulting viral supernatant was used to transduce HEK293T cells, which were then subsequently selected with puromycin to generate a stable cell line.
HEK293T cells carrying the ATF4 luciferase reporter were plated on polylysine coated 384-well plates (Greiner Bio-one) at 30,000 cells per well. Cells were treated the next day with 1 μg/mL tunicamycin and 200 nM of a compound of Formula (I) or Formula (II) for 7 hours. Luminescence was measured using One Glo (Promega) as specified by the manufacturer. Cells were maintained in DMEM with L-glutamine supplemented with 10% heat-inactivated FBS (Gibco) and Antibiotic-Antimycotic solution (Gibco).
Table 2 below summarizes the EC50 data obtained using the ATF4-Luc assay for exemplary compounds of the invention.

Structure (SMILES)	pEC50
O=C(COc1ccc(Cl)c(F)c1)NC12CC(C(=O)N3CC4(C3)CN(c3ccc(Cl)c(F)c3)C4)(C1)C2 [Compound 100, 2-(4-chloro-3-fluorophenoxy)-N-{3-[6-(4-chloro-3-fluorophenyl)-2,6-diazaspiro[3.3]heptane-2-carbonyl]bicyclo[1.1.1]pentan-1-yl}acetamide]	< 5.70
O=C(COc1ccc(Cl)c(F)c1)NC12CC(C(=O)N3CCC(c4ccc(Cl)cc4)CC3)(C1)C2 [Compound 101, 2-(4-chloro-3-fluorophenoxy)-N-{3-[4-(4-chlorophenyl)piperidine-1-carbonyl]bicyclo[1.1.1]pentan-1-yl}acetamide]	6.60 to 7.30
O=C(COc1ccc(Cl)c(F)c1)NC12CCC(C(=O)N3CCC(c4ccc(Cl)cc4)CC3)(CC1)CC2 [Compound 102, 2-(4-chloro-3-fluorophenoxy)-N-{4-[4-(4-chlorophenyl)piperidine-1-carbonyl]bicyclo[2.2.2]octan-1-yl}acetamide]	6.60 to 7.30
O=C(COc1ccc(Cl)c(F)c1)NC12CC(C(=O)N3CCC(c4ccc(Cl)cc4)C3)(C1)C2 (stereo not shown) [Compound 103, 2-(4-chloro-3-fluorophenoxy)-N-{3-[3-(4-chlorophenyl)pyrrolidine-1-carbonyl]bicyclo[1.1.1]pentan-1-yl}acetamide]	< 5.70
O=C(COc1ccc(Cl)c(F)c1)NC12CCC(C(=O)N3CCC(c4ccc(Cl)cc4)C3)(CC1)CC2 (stereo not shown) [Compound 104, 2-(4-chloro-3-fluorophenoxy)-N-{4-[3-(4-chlorophenyl)pyrrolidine-1-carbonyl]bicyclo[2.2.2]octan-1-yl}acetamide]	< 5.70
O=C(COc1ccc(Cl)c(F)c1)NC12CCC(C(=O)N3CC(c4ccc(Cl)cc4)C3)(CC1)CC2 [Compound 105, 2-(4-chloro-3-fluorophenoxy)-N-{4-[3-(4-chlorophenyl)azetidine-1-carbonyl]bicyclo[2.2.2]octan-1-yl}acetamide]	> 7.30
O=C(COc1ccc(Cl)c(F)c1)NC12CC(C(=O)N3CC(c4ccc(Cl)cc4)C3)(C1)C2 [Compound 106, 2-(4-chloro-3-fluorophenoxy)-N-{3-[3-(4-chlorophenyl)azetidine-1-carbonyl]bicyclo[1.1.1]pentan-1-yl}acetamide]	> 7.30
O=C(COc1ccc(Cl)c(F)c1)NC12CCC(C(=O)N3CCN(c4ccc(Cl)cc4)CC3)(CC1)CC2 [Compound 107, 2-(4-chloro-3-fluorophenoxy)-N-{4-[4-(4-chlorophenyl)piperazine-1-carbonyl]bicyclo[2.2.2]octan-1-yl}acetamide]	6.60 to 7.30
O=C(COc1ccc(Cl)c(F)c1)NC12CCC(C(=O)N3CC(O)(c4ccc(Cl)cc4)C3)(CC1)[C@@H](O)C2 [Compound 108, 2-(4-chloro-3-fluorophenoxy)-N-{(3S)-4-[3-(4-chlorophenyl)-3-hydroxyazetidine-1-carbonyl]-3-hydroxybicyclo[2.2.2]octan-1-yl}acetamide]	6.00 to 6.60
O=C(COc1ccc(Cl)c(F)c1)NC12CCC(C(=O)N3CC(O)(c4ccc(Cl)cc4)C3)(CC1)[C@H](O)C2 [Compound 109, 2-(4-chloro-3-fluorophenoxy)-N-{(3R)-4-[3-(4-chlorophenyl)-3-hydroxyazetidine-1-carbonyl]-3-hydroxybicyclo[2.2.2]octan-1-yl}acetamide]	6.60 to 7.30
O=C(COc1ccc(Cl)c(F)c1)NC12CC(C(=O)N3CC(O)(c4ccc(Cl)cc4)C3)(C1)C2 [Compound 110, 2-(4-chloro-3-fluorophenoxy)-N-{3-[3-(4-chlorophenyl)-3-hydroxyazetidine-1-carbonyl]bicyclo[1.1.1]pentan-1-yl}acetamide]	< 5.70
O=C(COc1ccc(Cl)c(F)c1)NC12CC(C(=O)N3Cc4ccc(Cl)cc4C3)(C1)C2 [Compound 111, N-[3-(5-chloro-1,3-dihydro-2H-isoindole-2-carbonyl)bicyclo[1.1.1]pentan-1-yl]-2-(4-chloro-3-fluorophenoxy)acetamide]	6.00 to 6.60
O=C(COc1ccc(Cl)c(F)c1)NC12CCC(C(=O)N3Cc4ccc(Cl)cc4C3)(CC1)CC2 [Compound 112, N-[4-(5-chloro-1,3-dihydro-2H-isoindole-2-carbonyl)bicyclo[2.2.2]octan-1-yl]-2-(4-chloro-3-fluorophenoxy)acetamide]	< 5.70
O=C(COc1ccc(Cl)c(F)c1)NC12CCC(C(=O)N3CC(c4ccccc4)C3)(CC1)CC2O (stereo not shown) [Compound 113, 2-(4-chloro-3-fluorophenoxy)-N-[2-hydroxy-4-(3-phenylazetidine-1-carbonyl)bicyclo[2.2.2]octan-1-yl]acetamide]	6.00 to 6.60
O=C(COc1ccc(Cl)c(F)c1)NC12CCC(C(=O)N3CCC(c4ccc(Cl)cc4)C3)(CC1)CC2O (stereo not shown) [Compound 114, 2-(4-chloro-3-fluorophenoxy)-N-{4-[3-(4-chlorophenyl)pyrrolidine-1-carbonyl]-2-hydroxybicyclo[2.2.2]octan-1-yl}acetamide]	< 5.70
O=C(COc1ccc(Cl)c(F)c1)NC12CCC(C(=O)N3CC(c4ccc(Cl)cc4)C3)(CC1)CC2O (stereo not shown) [Compound 115, 2-(4-chloro-3-fluorophenoxy)-N-{4-[3-(4-chlorophenyl)azetidine-1-carbonyl]-2-hydroxybicyclo[2.2.2]octan-1-yl}acetamide]	> 7.30
